{"source": "patent US20080009418A1", "about": "“Selective Inhibitors” (Alchemia LTD., priority 2004, published 2008)", "settings_in_all_cases": "compound at 10 μM", "key": {"Human melanocortin (MC5)": {"target": "T1, Human melanocortin (MC5) (Homo sapiens, UniProt P33032)", "T1 construct": "purchased Perkin Elmer Biosignal", "T1 sequence (P33032 whole entry)": "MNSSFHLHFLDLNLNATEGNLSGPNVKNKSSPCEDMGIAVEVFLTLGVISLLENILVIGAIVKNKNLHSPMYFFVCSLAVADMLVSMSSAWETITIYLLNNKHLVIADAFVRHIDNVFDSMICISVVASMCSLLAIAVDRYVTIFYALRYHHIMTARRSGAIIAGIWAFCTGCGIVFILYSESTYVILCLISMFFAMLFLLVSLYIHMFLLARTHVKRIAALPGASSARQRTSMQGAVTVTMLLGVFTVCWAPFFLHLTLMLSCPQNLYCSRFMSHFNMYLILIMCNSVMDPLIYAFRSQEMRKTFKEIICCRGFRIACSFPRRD", "test": "Radioligand binding, human melanocortin MC5 membranes, FlashPlate, [125I]-NDP-αMSH", "outline": "(§1)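 Cloned human receptor membranes were coated onto FlashPlate wells and incubated with radioligand and compound (added from a 0.5 mM DMSO daughter plate) for 1 hour at room temperature in the dark. Scintillation counting gave percent inhibition, with DMSO defining total and reference ligand defining non-specific binding.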"}, "Human Melanocortin (MC3)": {"target": "T2, Human Melanocortin (MC3) (Homo sapiens, UniProt P41968)", "T2 construct": "purchased Perkin Elmer Biosignal", "T2 sequence (P41968 whole entry)": "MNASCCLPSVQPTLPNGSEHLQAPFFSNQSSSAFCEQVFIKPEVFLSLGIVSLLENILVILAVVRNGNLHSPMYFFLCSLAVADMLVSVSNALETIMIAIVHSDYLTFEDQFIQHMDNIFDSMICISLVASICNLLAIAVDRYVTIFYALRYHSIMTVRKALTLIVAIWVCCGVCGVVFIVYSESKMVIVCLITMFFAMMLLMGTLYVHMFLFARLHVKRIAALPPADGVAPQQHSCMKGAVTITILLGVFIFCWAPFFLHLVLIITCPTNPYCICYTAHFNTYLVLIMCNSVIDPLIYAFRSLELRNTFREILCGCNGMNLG", "test": "Radioligand binding, human melanocortin MC3 membranes, FlashPlate, [125I]-NDP-αMSH", "outline": "as §1"}, "Human neurokinin (NK1)": {"target": "T3, Human neurokinin (NK1) (Homo sapiens, UniProt P25103)", "T3 construct": "purchased Perkin Elmer Biosignal", "T3 sequence (P25103 whole entry)": "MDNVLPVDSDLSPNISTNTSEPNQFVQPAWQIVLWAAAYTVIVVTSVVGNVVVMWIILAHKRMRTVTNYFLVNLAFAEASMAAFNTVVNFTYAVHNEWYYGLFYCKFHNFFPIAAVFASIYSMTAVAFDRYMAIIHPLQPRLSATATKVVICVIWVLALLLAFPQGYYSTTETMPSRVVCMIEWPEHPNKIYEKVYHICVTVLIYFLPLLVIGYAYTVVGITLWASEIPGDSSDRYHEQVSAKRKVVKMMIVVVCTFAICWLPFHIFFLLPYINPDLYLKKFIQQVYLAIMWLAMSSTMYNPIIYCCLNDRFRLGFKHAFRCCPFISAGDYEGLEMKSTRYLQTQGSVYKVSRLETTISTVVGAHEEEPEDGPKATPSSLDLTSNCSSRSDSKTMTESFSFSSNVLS", "test": "Radioligand binding, human neurokinin NK1 membranes, filtration, [125I]-Substance P", "outline": "(§2)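 Filtration binding on cloned human receptor membranes (1 Unit/well), [125I]-Substance P for NK1 and [3H]-Diprenorphine for KOP, 1 h at room temperature. Filters PEI-presoaked, washed with cold 50 mM Tris-HCl pH 7.4, counted by scintillation; percent inhibition calculated, reference ligand defining non-specific binding.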"}, "[1]": {"target": "T4, Human melanin-concentrating hormone (MCH1) (Homo sapiens, UniProt Q99705)", "T4 construct": "purchased Perkin Elmer Biosignal", "T4 sequence (Q99705 whole entry)": "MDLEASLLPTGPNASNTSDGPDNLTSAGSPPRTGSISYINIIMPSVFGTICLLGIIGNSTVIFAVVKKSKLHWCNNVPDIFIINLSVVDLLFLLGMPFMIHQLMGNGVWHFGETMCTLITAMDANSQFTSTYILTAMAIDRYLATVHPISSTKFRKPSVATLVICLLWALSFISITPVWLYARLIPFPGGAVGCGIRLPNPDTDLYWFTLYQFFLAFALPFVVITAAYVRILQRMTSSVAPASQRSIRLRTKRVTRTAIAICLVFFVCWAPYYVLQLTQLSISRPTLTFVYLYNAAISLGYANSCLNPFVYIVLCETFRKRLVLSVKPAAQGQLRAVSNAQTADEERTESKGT", "test": "Radioligand binding, human melanin-concentrating hormone MCH1 membranes, FlashPlate, [125I]-S36057", "outline": "as §1"}, "Human δ-opioid (DOP)": {"target": "T5, Human δ-opioid (DOP) (Homo sapiens, UniProt P41143)", "T5 construct": "purchased Perkin Elmer Biosignal", "T5 sequence (P41143 whole entry)": "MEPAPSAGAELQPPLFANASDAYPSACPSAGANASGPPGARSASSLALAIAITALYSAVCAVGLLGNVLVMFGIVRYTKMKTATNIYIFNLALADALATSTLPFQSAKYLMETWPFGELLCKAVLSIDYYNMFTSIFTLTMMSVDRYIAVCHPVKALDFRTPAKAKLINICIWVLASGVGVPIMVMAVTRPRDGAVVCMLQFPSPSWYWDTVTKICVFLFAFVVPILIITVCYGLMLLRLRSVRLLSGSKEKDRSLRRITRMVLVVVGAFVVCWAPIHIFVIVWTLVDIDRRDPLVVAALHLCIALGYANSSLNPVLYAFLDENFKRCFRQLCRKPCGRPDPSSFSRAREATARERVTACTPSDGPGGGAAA", "test": "Radioligand binding, human δ-opioid (DOP) membranes, FlashPlate, [3H]-Bremazocine", "outline": "as §1"}, "Human Melanocortin (MC4)": {"target": "T6, Human Melanocortin (MC4) (Homo sapiens, UniProt P32245)", "T6 construct": "purchased Perkin Elmer Biosignal", "T6 sequence (P32245 whole entry)": "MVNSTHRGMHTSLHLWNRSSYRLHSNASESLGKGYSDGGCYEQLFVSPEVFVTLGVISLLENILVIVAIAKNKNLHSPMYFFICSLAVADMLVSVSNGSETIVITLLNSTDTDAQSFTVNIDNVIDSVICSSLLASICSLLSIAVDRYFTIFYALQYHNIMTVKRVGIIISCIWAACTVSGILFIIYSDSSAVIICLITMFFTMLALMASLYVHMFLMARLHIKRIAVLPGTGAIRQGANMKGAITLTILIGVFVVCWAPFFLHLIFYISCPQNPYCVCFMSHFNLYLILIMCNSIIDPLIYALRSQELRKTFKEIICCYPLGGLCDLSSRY", "test": "Radioligand binding, human melanocortin MC4 membranes, FlashPlate, [125I]-NDP-αMSH", "outline": "as §1"}, "Human μ-opioid (MOP)": {"target": "T7, Human μ-opioid (MOP) (Homo sapiens, UniProt P35372)", "T7 construct": "purchased Perkin Elmer Biosignal", "T7 sequence (P35372 whole entry)": "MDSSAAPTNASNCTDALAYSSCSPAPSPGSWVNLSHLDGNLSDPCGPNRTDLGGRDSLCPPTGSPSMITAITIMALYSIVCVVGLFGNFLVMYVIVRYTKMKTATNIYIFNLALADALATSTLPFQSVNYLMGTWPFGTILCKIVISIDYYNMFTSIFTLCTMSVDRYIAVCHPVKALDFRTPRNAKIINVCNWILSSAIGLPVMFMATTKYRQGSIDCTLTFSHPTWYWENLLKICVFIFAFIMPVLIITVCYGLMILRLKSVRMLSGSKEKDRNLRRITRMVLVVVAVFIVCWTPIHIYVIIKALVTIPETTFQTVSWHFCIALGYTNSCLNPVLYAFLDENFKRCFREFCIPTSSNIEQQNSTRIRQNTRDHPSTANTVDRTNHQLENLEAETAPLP", "test": "Radioligand binding, human μ-opioid (MOP) membranes, FlashPlate, [3H]-Naloxone", "outline": "as §1"}, "Mouse urotensin (mUR2)": {"target": "T8, Mouse urotensin (mUR2) (Mus musculus, UniProt Q8VIH9)", "T8 construct": "purchased Perkin Elmer Biosignal", "T8 sequence (Q8VIH9 1-385)": "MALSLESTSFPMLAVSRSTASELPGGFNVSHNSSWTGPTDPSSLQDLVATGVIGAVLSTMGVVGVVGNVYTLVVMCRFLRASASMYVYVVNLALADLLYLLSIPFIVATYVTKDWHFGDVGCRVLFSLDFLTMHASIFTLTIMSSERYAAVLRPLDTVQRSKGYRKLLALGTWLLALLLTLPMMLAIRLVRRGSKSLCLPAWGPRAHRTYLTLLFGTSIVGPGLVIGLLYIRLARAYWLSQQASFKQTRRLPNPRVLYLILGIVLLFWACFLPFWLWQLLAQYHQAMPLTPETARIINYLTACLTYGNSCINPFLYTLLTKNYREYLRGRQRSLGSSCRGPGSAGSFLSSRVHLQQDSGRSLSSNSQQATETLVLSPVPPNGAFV", "test": "Radioligand binding, mouse urotensin mUR2 membranes, FlashPlate, [125I]-Urotensin II", "outline": "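Cloned mouse urotensin (mUR2) receptor membranes from Perkin Elmer Biosignal were immobilized in FlashPlate microplates using a proprietary coating. Each well got 19.5 μl buffer, then 0.5 μl of DMSO, reference ligand, or compound. Adding 5 μl of [125I]-Urotensin II, diluted to 5× final concentration in binding buffer, started binding. Plates were sealed with TopSeal-A and incubated 1 hour at room temperature in the dark. Wells were counted for 30 seconds each on a TopCount after a 60-second delay, and percentage inhibition was calculated.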"}, "Human κ-Opioid (KOP)": {"target": "T9, Human κ-Opioid (KOP) (Homo sapiens, UniProt P41145)", "T9 construct": "purchased Perkin Elmer Biosignal", "T9 sequence (P41145 whole entry)": "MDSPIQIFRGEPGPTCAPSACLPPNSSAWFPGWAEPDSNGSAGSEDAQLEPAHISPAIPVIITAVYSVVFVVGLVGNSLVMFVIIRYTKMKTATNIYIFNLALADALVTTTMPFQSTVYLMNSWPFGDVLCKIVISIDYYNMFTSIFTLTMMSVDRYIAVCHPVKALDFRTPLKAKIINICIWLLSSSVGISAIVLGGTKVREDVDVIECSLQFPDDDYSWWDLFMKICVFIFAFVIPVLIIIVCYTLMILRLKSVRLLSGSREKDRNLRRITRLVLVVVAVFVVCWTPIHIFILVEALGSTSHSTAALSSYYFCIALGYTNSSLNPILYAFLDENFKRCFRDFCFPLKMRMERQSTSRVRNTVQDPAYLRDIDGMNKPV", "test": "Radioligand binding, human κ-opioid (KOP) membranes, filtration, [3H]-Diprenorphine", "outline": "as §2"}, "[2]": {"target": "T10, Human neuropeptide Y (NPY-Y1) (Homo sapiens, UniProt P25929)", "T10 construct": "purchased Perkin Elmer Biosignal", "T10 sequence (P25929 1-384)": "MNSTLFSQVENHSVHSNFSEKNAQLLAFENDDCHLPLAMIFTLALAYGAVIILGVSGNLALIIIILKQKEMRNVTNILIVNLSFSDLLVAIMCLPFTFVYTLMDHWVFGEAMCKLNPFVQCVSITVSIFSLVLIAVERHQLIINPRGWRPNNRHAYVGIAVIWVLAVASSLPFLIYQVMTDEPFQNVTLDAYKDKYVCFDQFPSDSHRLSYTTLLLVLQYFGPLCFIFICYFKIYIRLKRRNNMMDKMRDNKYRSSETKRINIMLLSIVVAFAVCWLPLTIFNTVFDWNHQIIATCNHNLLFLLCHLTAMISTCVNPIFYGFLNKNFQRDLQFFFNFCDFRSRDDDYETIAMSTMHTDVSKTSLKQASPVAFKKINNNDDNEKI", "test": "Radioligand binding, human neuropeptide Y NPY-Y1 membranes, FlashPlate, [125I]-PYY", "outline": "as §1"}, "Human opioid (ORL1)": {"target": "T11, Human opioid (ORL1) (Homo sapiens, UniProt P41146)", "T11 construct": "purchased Perkin Elmer Biosignal", "T11 sequence (P41146 whole entry)": "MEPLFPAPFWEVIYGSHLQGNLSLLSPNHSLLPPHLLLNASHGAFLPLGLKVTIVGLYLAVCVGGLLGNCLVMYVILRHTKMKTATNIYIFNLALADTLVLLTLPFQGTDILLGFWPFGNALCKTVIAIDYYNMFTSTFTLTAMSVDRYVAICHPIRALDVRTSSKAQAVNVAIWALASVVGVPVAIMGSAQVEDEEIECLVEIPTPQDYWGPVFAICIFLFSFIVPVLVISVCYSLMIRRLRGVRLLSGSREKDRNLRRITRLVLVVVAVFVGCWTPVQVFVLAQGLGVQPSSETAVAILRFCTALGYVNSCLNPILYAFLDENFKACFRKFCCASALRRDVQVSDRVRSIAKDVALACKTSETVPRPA", "test": "Radioligand binding, human opioid ORL1 membranes, FlashPlate, [125I]-Nociceptin", "outline": "as §1"}}, "data": [{"smiles": "N=C(N)NCC(=O)NC1COC(COCc2ccc3ccccc3c2)C(O)C1OCc1ccc(Cl)cc1", "note": "(stereo not drawn) [compound 540]", "values": [{"measurement": "A5: inhibition of radioligand binding, human melanocortin (MC5)", "setting": "Human melanocortin (MC5); [125I]-NDP-αMSH", "value": "− (“−” indicates less than 50% inhibition at 10 μM)"}, {"measurement": "A3: inhibition of radioligand binding, human melanocortin (MC3)", "setting": "Human Melanocortin (MC3); [125I]-NDP-αMSH", "value": "− (“−” indicates less than 50% inhibition at 10 μM)"}, {"measurement": "A8: inhibition of radioligand binding, human neurokinin (NK1)", "setting": "Human neurokinin (NK1); [125I]-Substance P", "value": "+ (“+” indicates greater than 50% inhibition at 10 μM)"}, {"measurement": "A6: inhibition of radioligand binding, human melanin-concentrating hormone (MCH1)", "setting": "[1]; [125I]-S36057", "value": "− (“−” indicates less than 50% inhibition at 10 μM)"}, {"measurement": "A1: inhibition of radioligand binding, human δ-opioid (DOP)", "setting": "Human δ-opioid (DOP); [3H]-Bremazocine", "value": "− (“−” indicates less than 50% inhibition at 10 μM)"}, {"measurement": "A4: inhibition of radioligand binding, human melanocortin (MC4)", "setting": "Human Melanocortin (MC4); [125I]-NDP-αMSH", "value": "+ (“+” indicates greater than 50% inhibition at 10 μM)"}, {"measurement": "A7: inhibition of radioligand binding, human μ-opioid (MOP)", "setting": "Human μ-opioid (MOP); [3H]-Naloxone", "value": "− (“−” indicates less than 50% inhibition at 10 μM)"}, {"measurement": "A11: inhibition of radioligand binding, mouse urotensin (mUR2)", "setting": "Mouse urotensin (mUR2); [125I]-Urotensin II", "value": "− (“−” indicates less than 50% inhibition at 10 μM)"}, {"measurement": "A2: inhibition of radioligand binding, human κ-opioid (KOP)", "setting": "Human κ-Opioid (KOP); [3H]-Diprenorphine", "value": "− (“−” indicates less than 50% inhibition at 10 μM)"}, {"measurement": "A9: inhibition of radioligand binding, human neuropeptide Y (NPY-Y1)", "setting": "[2]; [125I]-PYY", "value": "− (“−” indicates less than 50% inhibition at 10 μM)"}, {"measurement": "A10: inhibition of radioligand binding, human opioid (ORL1)", "setting": "Human opioid (ORL1); [125I]-Nociceptin", "value": "− (“−” indicates less than 50% inhibition at 10 μM)"}]}, {"smiles": "COC[C@H]1OC(OCc2ccc3ccccc3c2)[C@H](NC(=O)CNC(=N)N)[C@@H](OCc2ccc(-c3ccccc3)cc2)[C@@H]1O", "note": "(stereo partly drawn) [compound 14]", "values": [{"measurement": "A5 radioligand binding inhibition", "setting": "Human melanocortin (MC5); human melanocortin MC5 membranes", "value": "+ (“+” indicates greater than 50% inhibition at 10 μM)"}, {"measurement": "A3 radioligand binding inhibition", "setting": "Human Melanocortin (MC3); human melanocortin MC3 membranes", "value": "− (“−” indicates less than 50% inhibition at 10 μM)"}, {"measurement": "A8 radioligand binding inhibition", "setting": "Human neurokinin (NK1); human neurokinin NK1 membranes", "value": "− (“−” indicates less than 50% inhibition at 10 μM)"}, {"measurement": "A6 radioligand binding inhibition", "setting": "[1]; human MCH1 membranes", "value": "+ (“+” indicates greater than 50% inhibition at 10 μM)"}, {"measurement": "A1 radioligand binding inhibition", "setting": "Human δ-opioid (DOP); human δ-opioid (DOP) membranes", "value": "− (“−” indicates less than 50% inhibition at 10 μM)"}, {"measurement": "A4 radioligand binding inhibition", "setting": "Human Melanocortin (MC4); human melanocortin MC4 membranes", "value": "+ (“+” indicates greater than 50% inhibition at 10 μM)"}, {"measurement": "A7 radioligand binding inhibition", "setting": "Human μ-opioid (MOP); human μ-opioid (MOP) membranes", "value": "+ (“+” indicates greater than 50% inhibition at 10 μM)"}, {"measurement": "A11 radioligand binding inhibition", "setting": "Mouse urotensin (mUR2); mouse urotensin mUR2 membranes", "value": "− (“−” indicates less than 50% inhibition at 10 μM)"}, {"measurement": "A2 radioligand binding inhibition", "setting": "Human κ-Opioid (KOP); human κ-opioid (KOP) membranes", "value": "− (“−” indicates less than 50% inhibition at 10 μM)"}, {"measurement": "A9 radioligand binding inhibition", "setting": "[2]; human NPY-Y1 membranes", "value": "− (“−” indicates less than 50% inhibition at 10 μM)"}, {"measurement": "A10 radioligand binding inhibition", "setting": "Human opioid (ORL1); human ORL1 membranes", "value": "− (“−” indicates less than 50% inhibition at 10 μM)"}]}, {"smiles": "NCCC(=O)NC1C(OCc2ccc(Cl)cc2)OC(COCc2ccccc2)C(O)C1OCc1ccc(Cl)cc1", "note": "(single isomer, unassigned) [compound 473]", "values": [{"measurement": "A5: inhibition of radioligand binding", "setting": "Human melanocortin (MC5); [125I]-NDP-αMSH, human MC5 membranes, 10 µM", "value": "+ (“+” indicates greater than 50% inhibition at 10 μM)"}, {"measurement": "A3: inhibition of radioligand binding", "setting": "Human Melanocortin (MC3); [125I]-NDP-αMSH, human MC3 membranes", "value": "− (“−” indicates less than 50% inhibition at 10 μM)"}, {"measurement": "A8: inhibition of radioligand binding", "setting": "Human neurokinin (NK1); [125I]-Substance P, human NK1 membranes", "value": "+ (“+” indicates greater than 50% inhibition at 10 μM)"}, {"measurement": "A6: inhibition of radioligand binding", "setting": "[1]; [125I]-S36057, human MCH1 membranes, 10 µM", "value": "+ (“+” indicates greater than 50% inhibition at 10 μM)"}, {"measurement": "A1: inhibition of radioligand binding", "setting": "Human δ-opioid (DOP); [3H]-Bremazocine, human DOP membranes", "value": "− (“−” indicates less than 50% inhibition at 10 μM)"}, {"measurement": "A4: inhibition of radioligand binding", "setting": "Human Melanocortin (MC4); [125I]-NDP-αMSH, human MC4 membranes", "value": "− (“−” indicates less than 50% inhibition at 10 μM)"}, {"measurement": "A7: inhibition of radioligand binding", "setting": "Human μ-opioid (MOP); [3H]-Naloxone, human MOP membranes, 10 µM", "value": "+ (“+” indicates greater than 50% inhibition at 10 μM)"}, {"measurement": "A11: inhibition of radioligand binding", "setting": "Mouse urotensin (mUR2); [125I]-Urotensin II, mouse mUR2 membranes", "value": "− (“−” indicates less than 50% inhibition at 10 μM)"}, {"measurement": "A2: inhibition of radioligand binding", "setting": "Human κ-Opioid (KOP); [3H]-Diprenorphine, human KOP membranes", "value": "− (“−” indicates less than 50% inhibition at 10 μM)"}, {"measurement": "A9: inhibition of radioligand binding", "setting": "[2]; [125I]-PYY, human NPY-Y1 membranes", "value": "− (“−” indicates less than 50% inhibition at 10 μM)"}, {"measurement": "A10: inhibition of radioligand binding", "setting": "Human opioid (ORL1); [125I]-Nociceptin, human ORL1 membranes, 10 µM", "value": "− (“−” indicates less than 50% inhibition at 10 μM)"}]}]}
